Tests used:
Recombinant human TDO = Recombinant human TDO (Homo sapiens, UniProt P48775); assay: hTDO biochemical coupled assay; conditions: 330 μM L-tryptophan, coupled with kynurenine formamidase
Method in brief: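 Recombinant human TDO with 330 μM L-tryptophan in 50 mM KPO4 pH 7.0 containing EGTA, EDTA, Triton X100, ascorbate, methylene blue, catalase and kynurenine formamidase (KynB), 17 min at room temperature. Stopped with Ehrlich's reagent, 5 min, then kynurenine fluorescence read (Ex475, Em530).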

[1] = target: T1, IDO (SKOV3 human ovarian adenocarcinoma cells, IFN-γ induced) (Homo sapiens, UniProt P14902); assay: SKOV3 Kynurenine cell based assay; conditions: IDO induced by 500 ng/ml IFN-γ, 500 μM L-tryptophan, 48 hours
T1 construct: IDO expression was induced in the SKOV3 cells by the addition of 500 ng/ml IFN-γ; endogenous in cells; host or cells: SKOV3 human ovarian adenocarcinoma cells, induced with IFN-γ
Method in brief: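 IFN-γ (500 ng/ml) induced IDO in SKOV3 cells, seeded at 40,000/well in phenol red-free RPMI with 10% FCS, 2 mM L-glutamine and 500 μM L-tryptophan. Cells were incubated with or without compound at 37° C for 48 h. Supernatant kynurenine was detected with Ehrlich's reagent.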

[2] = target: T2, TDO (A172 human glioblastoma cells) (Homo sapiens, UniProt P48775); assay: A172 Kynurenine cell based assay; conditions: 500 μM L-tryptophan, 48 hours, kynurenine by Erhlich's reagent
T2 construct: This assay utilised cancer cells which expressed either TDO or IDO; endogenous in cells; host or cells: A172 human glioblastoma cells
Method in brief: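 A172 glioblastoma cells (30,000/well) cultured at 37° C. in phenol red-free RPMI with 10% FCS, 2 mM L-glutamine and 500 μM L-tryptophan, with or without test compound. After 48 hours, kynurenine in the supernatant was read with Erhlich's reagent (5 min) as absorbance at 490 nm.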

Recombinant human IDO = Recombinant human IDO (Homo sapiens, UniProt P14902); assay: hIDO biochemical coupled assay; conditions: 45 μM L-tryptophan, coupled with kynurenine formamidase
Method in brief: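 Recombinant human IDO incubated in 50 mM KPO4 (pH 7.0), 0.5 mM EGTA, 0.5 mM EDTA, 0.05% Triton X100, 20 mM ascorbate, 10 μM methylene blue, 500 U/ml catalase and 50 μg/ml kynurenine formamidase. N-formylkynurenine converted to kynurenine, quantified by fluorescence after Ehrlich's reagent.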

T2 sequence (P48775 whole entry): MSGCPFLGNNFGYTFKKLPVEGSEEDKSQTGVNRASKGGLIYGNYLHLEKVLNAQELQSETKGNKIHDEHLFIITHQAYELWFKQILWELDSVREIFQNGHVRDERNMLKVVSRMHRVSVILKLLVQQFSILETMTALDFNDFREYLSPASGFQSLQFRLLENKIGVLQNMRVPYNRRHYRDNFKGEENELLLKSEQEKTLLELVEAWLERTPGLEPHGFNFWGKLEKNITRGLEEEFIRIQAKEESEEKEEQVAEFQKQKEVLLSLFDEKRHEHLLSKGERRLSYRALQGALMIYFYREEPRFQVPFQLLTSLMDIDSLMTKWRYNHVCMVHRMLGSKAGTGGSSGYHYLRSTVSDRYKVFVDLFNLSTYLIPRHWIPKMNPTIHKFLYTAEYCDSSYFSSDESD
Recombinant human TDO, sequence (P48775 whole entry): as above
T1 sequence (P14902 whole entry): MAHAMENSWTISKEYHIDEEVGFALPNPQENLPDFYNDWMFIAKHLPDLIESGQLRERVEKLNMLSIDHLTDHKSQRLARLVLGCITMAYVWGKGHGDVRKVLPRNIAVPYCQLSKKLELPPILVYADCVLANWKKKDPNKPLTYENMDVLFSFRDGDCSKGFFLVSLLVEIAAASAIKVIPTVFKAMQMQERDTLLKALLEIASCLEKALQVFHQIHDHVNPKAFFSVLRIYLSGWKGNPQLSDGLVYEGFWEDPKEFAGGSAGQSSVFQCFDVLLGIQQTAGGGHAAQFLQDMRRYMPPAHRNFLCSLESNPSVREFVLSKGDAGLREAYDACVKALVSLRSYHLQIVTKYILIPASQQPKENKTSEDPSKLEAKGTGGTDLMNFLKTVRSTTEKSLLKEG
Recombinant human IDO, sequence (P14902 whole entry): as above

Row | Compound | hTDO biochemical assay pIC50 (Recombinant human TDO) | SKOV3 Kynurenine cell based assay pIC50 [1] | A172 Kynurenine cell based assay pIC50 [2] | hIDO biocehmical assay pIC50 (Recombinant human IDO)
1 | Cc1cccc2c(C3CCN(C(=O)c4cc(Cl)cnc4Cl)CC3)c[nH]c12 [Compound 28] | +− (+− = pIC50 <4.00) | + (+ = pIC50 4.00-4.99) | +− (+− = pIC50 <4.00) | +− (+− = pIC50 <4.00)
2 | CC(=O)N1CC=C(c2c[nH]c3cc(F)c(F)cc23)CC1 [Compound 167] | ++ (++ = pIC50 5.00-5.99) | + (+ = pIC50 4.00-4.99) | ++ (++ = pIC50 5.00-5.99) | +− (+− = pIC50 <4.00)
3 | O=C(c1ccccc1)N1CCC(c2c[nH]c3ccccc23)CC1 [Compound 82] | +− (+− = pIC50 <4.00) | +− (+− = pIC50 <4.00) | + (+ = pIC50 4.00-4.99) | +− (+− = pIC50 <4.00)
4 | CC(=O)N1CC=C(c2c[nH]c3cccc(F)c23)CC1 [Compound 77] | + (+ = pIC50 4.00-4.99) | + (+ = pIC50 4.00-4.99) | + (+ = pIC50 4.00-4.99) | +− (+− = pIC50 <4.00)
5 | CS(=O)(=O)N1CC=C(c2c[nH]c3c(F)cccc23)CC1 [Compound 100] | +− (+− = pIC50 <4.00) | +− (+− = pIC50 <4.00) | + (+ = pIC50 4.00-4.99) | +− (+− = pIC50 <4.00)
6 | COc1ccc(Br)cc1S(=O)(=O)N1CCC(c2c[nH]c3ccc(F)cc23)CC1 [Compound 27] | +− (+− = pIC50 <4.00) | + (+ = pIC50 4.00-4.99) | + (+ = pIC50 4.00-4.99) | +− (+− = pIC50 <4.00)
7 | CC(=O)N1CC=C(c2c[nH]c3ccc(C)cc23)CC1 [Compound 89] | ++ (++ = pIC50 5.00-5.99) | + (+ = pIC50 4.00-4.99) | + (+ = pIC50 4.00-4.99) | +− (+− = pIC50 <4.00)
8 | CC(=O)N1CC=C(c2c[nH]c3ccc(F)cc23)CC1 [Compound 86] | +++ (+++ = pIC50 ≥6.00) | + (+ = pIC50 4.00-4.99) | ++ (++ = pIC50 5.00-5.99) | +− (+− = pIC50 <4.00)
9 | Cc1ccc2[nH]cc(C3=CCN(S(C)(=O)=O)CC3)c2c1 [Compound 92] | + (+ = pIC50 4.00-4.99) | + (+ = pIC50 4.00-4.99) | ++ (++ = pIC50 5.00-5.99) | +− (+− = pIC50 <4.00)
10 | O=C(Cc1cccs1)N1CCC(c2c[nH]c3ccccc23)CC1 [Compound 19] | +− (+− = pIC50 <4.00) | + (+ = pIC50 4.00-4.99) | +− (+− = pIC50 <4.00) | +− (+− = pIC50 <4.00)
11 | CS(=O)(=O)N1CC=C(c2c[nH]c3cc(F)ccc23)CC1 [Compound 103] | ++ (++ = pIC50 5.00-5.99) | + (+ = pIC50 4.00-4.99) | +++ (+++ = pIC50 ≥6.00) | +− (+− = pIC50 <4.00)
12 | COc1ccc2[nH]cc(C3=CCN(C(C)=O)CC3)c2c1 [Compound 70] | + (+ = pIC50 4.00-4.99) | +− (+− = pIC50 <4.00) | +− (+− = pIC50 <4.00) | +− (+− = pIC50 <4.00)
13 | CC(=O)N1CC=C(c2c(C)[nH]c3ccccc23)CC1 [Compound 104] | + (+ = pIC50 4.00-4.99) | + (+ = pIC50 4.00-4.99) | +− (+− = pIC50 <4.00) | +− (+− = pIC50 <4.00)
14 | COc1ccc2[nH]cc(C3CCN(S(=O)(=O)c4cc(C(F)(F)F)ccc4C(F)(F)F)CC3)c2c1 [Compound 55] | +− (+− = pIC50 <4.00) | ++ (++ = pIC50 5.00-5.99) | +− (+− = pIC50 <4.00) | +− (+− = pIC50 <4.00)
15 | CC(=O)N1CC=C(c2c[nH]c3ncccc23)CC1 [Compound 105] | + (+ = pIC50 4.00-4.99) | + (+ = pIC50 4.00-4.99) | +− (+− = pIC50 <4.00) | +− (+− = pIC50 <4.00)
16 | O=S(=O)(C1CC1)N1CCC(c2c[nH]c3ccccc23)CC1 [Compound 75] | + (+ = pIC50 4.00-4.99) | +− (+− = pIC50 <4.00) | ++ (++ = pIC50 5.00-5.99) | +− (+− = pIC50 <4.00)
17 | CS(=O)(=O)N1CCC(c2c[nH]c3cc(F)ccc23)CC1 [Compound 22] | + (+ = pIC50 4.00-4.99) | +− (+− = pIC50 <4.00) | +++ (+++ = pIC50 ≥6.00) | +− (+− = pIC50 <4.00)
18 | CN(C)CC(=O)N1CCC(c2c[nH]c3ccccc23)CC1 [Compound 81] | + (+ = pIC50 4.00-4.99) | +− (+− = pIC50 <4.00) | +− (+− = pIC50 <4.00) | +− (+− = pIC50 <4.00)
19 | FC(F)(F)CN1CCC(c2c[nH]c3ccccc23)CC1 [Compound 10] | +− (+− = pIC50 <4.00) | +− (+− = pIC50 <4.00) | + (+ = pIC50 4.00-4.99) | +− (+− = pIC50 <4.00)
20 | COc1ccc2[nH]cc(C3CCN(C(=O)C(C)C)CC3)c2c1 [Compound 15] | +− (+− = pIC50 <4.00) | + (+ = pIC50 4.00-4.99) | +− (+− = pIC50 <4.00) | +− (+− = pIC50 <4.00)

— patent US9931347B2, “Pharmaceutical compound” (IOmet Pharma Ltd., priority 2013, dated 2018)
